The subject of this test is P388 leukemia ip, CD2F1 mice, survival T/C. The test is described as follows: NCI In Vivo Anticancer Drug Screen. Data for tumor model P388 Leukemia (intraperitoneal) in CD2F1 (CDF1) mice. Conditions: endpoint: median survival time, higher = longer survival. An outline of the steps:
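Mice carrying the transplanted tumor received test compound or vehicle. Survival was recorded in each group, and the value is the treated-group measurement divided by that of the vehicle-treated control group.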

Where [1] appears, read: dose: 50.0 mg/kg/injection, schedule: Q01DX005 (ip), vehicle: Klucel (hydroxypropylcellulose) (HPC).
The mark [2] stands for this setting: dose: 100.0 mg/kg/injection, schedule: Q01DX005 (ip), vehicle: Klucel (hydroxypropylcellulose) (HPC).
Setting [3] is: dose: 25.0 mg/kg/injection, schedule: Q01DX005 (ip), vehicle: Klucel (hydroxypropylcellulose) (HPC).
The mark [4] stands for this setting: dose: 50.0 mg/kg/injection, schedule: Q01DX005 (ip), vehicle: saline with Tween-80.
Where [5] appears, read: dose: 100.0 mg/kg/injection, schedule: Q01DX005 (ip), vehicle: saline with Tween-80.
The mark [6] stands for this setting: dose: 200.0 mg/kg/injection, schedule: Q01DX005 (ip), vehicle: saline with Tween-80.
[7] abbreviates: dose: 200.0 mg/kg/injection, schedule: Q01DX009 (ip), vehicle: saline with Tween-80.
Setting [8] is: dose: 50.0 mg/kg/injection, schedule: Q01DX009 (ip), vehicle: saline.
Where [9] appears, read: dose: 100.0 mg/kg/injection, schedule: Q01DX009 (ip), vehicle: saline.
Setting [10] is: dose: 200.0 mg/kg/injection, schedule: Q01DX009 (ip), vehicle: saline.
Where [11] appears, read: dose: 50.0 mg/kg/injection, schedule: Q01DX009 (ip), vehicle: Klucel (hydroxypropylcellulose) (HPC).
Where [12] appears, read: dose: 100.0 mg/kg/injection, schedule: Q01DX009 (ip), vehicle: Klucel (hydroxypropylcellulose) (HPC).
The mark [13] stands for this setting: dose: 200.0 mg/kg/injection, schedule: Q01DX009 (ip), vehicle: Klucel (hydroxypropylcellulose) (HPC).

The structures appear in SMILES notation. “And” between values parts separate entries of the source, which are not always exact repeats. Equal entries are not always repeated. Toxic doses and inconclusive results are not listed.

Our source for the T/C values is PubChem BioAssay AID330 (DTP/NCI, 2004).

Turning to `Cc1ccccc1N=C(c1ccccc1)C1C(=O)c2ccccc2C1=O`, the T/C is, setting by setting: (dose: 50.0 mg/kg/injection, schedule: Q01DX005 (ip), vehicle: DMSO) 100 % of control; under setting [1], 103 % of control; (dose: 100.0 mg/kg/injection, schedule: Q01DX005 (ip), vehicle: DMSO) 98 % of control; under setting [2], 106 % of control; (dose: 200.0 mg/kg/injection, schedule: Q01DX005 (ip), vehicle: DMSO) 97 % of control; (dose: 200.0 mg/kg/injection, schedule: Q01DX005 (ip), vehicle: Klucel (hydroxypropylcellulose) (HPC)) 103 % of control. Further, the T/C by setting is: (dose: 400.0 mg/kg/injection, schedule: Q01DX005 (ip), vehicle: DMSO) 101 % of control; (dose: 800.0 mg/kg/injection, schedule: Q01DX005 (ip), vehicle: DMSO) 97 % of control.
As to `CCN(CC)[Se]c1ccccc1`, the T/C is 101 % of control (dose: 100.0 mg/kg/injection, schedule: Q04DX002 (ip), vehicle: saline with Tween-80); 100 % of control (dose: 200.0 mg/kg/injection, schedule: Q04DX002 (ip), vehicle: saline with Tween-80); 98 % of control (dose: 400.0 mg/kg/injection, schedule: Q04DX002 (ip), vehicle: saline with Tween-80).
As to `CC1(c2ccccc2)CCCCC/C1=N/Nc1ccc([N+](=O)[O-])cc1[N+](=O)[O-]` (stereo not given), the T/C was 97 % of control under setting [3], 90 % of control under setting [1] and 94 % of control under setting [2].
`CCOc1c(C)cc(Cc2ccc3c(c2)OCO3)cc1C`: the T/C reads like this: under setting [4], 108 % of control; under setting [5], 101 % of control; under setting [6], 92 % of control.
Take `CCCCCCCN(CCCCCCC)C(=N)c1ccc(OC)c2ccccc12`: the T/C was 101 % of control (dose: 6.25 mg/kg/injection, schedule: Q01DX005 (ip), vehicle: Klucel (hydroxypropylcellulose) (HPC)); 101 % of control (dose: 12.5 mg/kg/injection, schedule: Q01DX005 (ip), vehicle: Klucel (hydroxypropylcellulose) (HPC)); 89 % of control under setting [3].
Regarding `N=c1c2c(ncn1CCc1ccccc1)CCN(Cc1ccccc1)C2`, the T/C runs as follows: (dose: 20.0 mg/kg/injection, schedule: Q01DX009 (ip), vehicle: saline with Tween-80) 91 % of control; (dose: 40.0 mg/kg/injection, schedule: Q01DX009 (ip), vehicle: saline with Tween-80) 94 % of control.
For the molecule `O=C(O)c1cc(C(=O)CCCCC(=O)c2cc(C(=O)O)c(O)c3ccccc23)c2ccccc2c1O`, the T/C runs as follows: (dose: 50.0 mg/kg/injection, schedule: Q01DX009 (ip), vehicle: saline with Tween-80) 90 % of control; (dose: 100.0 mg/kg/injection, schedule: Q01DX009 (ip), vehicle: saline with Tween-80) 90 % of control; under setting [7], 92 % of control.
Take `O=C(c1ccccc1)c1nn(-c2ccccc2)c(=O)cc1-c1ccccc1`: the T/C was 99 % of control under setting [4], 100 % of control under setting [5] and 100 % of control under setting [6].
`CC/C(=N\NS(=O)(=O)c1ccc(C)cc1)c1cccc(C#N)c1`: the T/C was 106 % of control under setting [8], 96 % of control under setting [9] and 99 % of control under setting [10].
Consider `CN(C)C1=NC(NCCc2ccccc2)(N(C)C)OC(N(C)C)=N1` (stereo not given), for which the T/C runs as follows: (dose: 25.0 mg/kg/injection, schedule: Q01DX005 (ip), vehicle: saline) 100 % of control; (dose: 50.0 mg/kg/injection, schedule: Q01DX005 (ip), vehicle: saline) 107 % of control; (dose: 100.0 mg/kg/injection, schedule: Q01DX005 (ip), vehicle: saline) 100 % of control.
Consider `N#Cc1ccc[n+](Cc2c(Cl)cccc2Cl)c1`, for which the T/C (dose: 6.25 mg/kg/injection, schedule: Q01DX009 (ip), vehicle: saline) is 121 % of control; the T/C (dose: 12.5 mg/kg/injection, schedule: Q01DX009 (ip), vehicle: saline) is 108 % of control and 112 % of control; the T/C (dose: 25.0 mg/kg/injection, schedule: Q01DX009 (ip), vehicle: saline) is 101 % of control and 115 % of control; the T/C under setting [8] was 110 % of control and 97 % of control.
Turning to `COc1cccc2c1C(=O)c1c(O)c3c(c(O)c1C2=O)C[C@@](O)(C(=O)COC(=O)CCCCC(=O)O)C[C@@H]3OC1CC(NC(=O)C(F)(F)F)C(O)C(C)O1` (stereo not given in full), the T/C (dose: 9.38 mg/kg/injection, schedule: Q04DX003 (ip), vehicle: other) is 118 % of control; the T/C (dose: 18.75 mg/kg/injection, schedule: Q04DX003 (ip), vehicle: other) was 123 % of control; the T/C (dose: 18.75 mg/kg/injection, schedule: Q04DX003 (ip), vehicle: saline with Tween-80) is 119 % of control; the T/C (dose: 37.5 mg/kg/injection, schedule: Q04DX003 (ip), vehicle: other) is 124 % of control; the T/C (dose: 75.0 mg/kg/injection, schedule: Q04DX003 (ip), vehicle: other) was 156 % of control; the T/C (dose: 150.0 mg/kg/injection, schedule: Q04DX003 (ip), vehicle: other) was 194 % of control.
For the molecule `COc1ccc(C(=O)CC2(O)C(=O)Nc3ccccc32)cc1` (stereo not given), the T/C by setting is: under setting [11], 100 % of control; under setting [12], 102 % of control; under setting [13], 100 % of control.
Take `O=C(O)c1cc(O)c(O)c(O)c1`: the T/C is 105 % of control (dose: 14.0 mg/kg/injection, schedule: Q01DX009 (ip), vehicle: saline); 100 % of control (dose: 22.0 mg/kg/injection, schedule: Q01DX009 (ip), vehicle: saline); 95 % of control (dose: 35.0 mg/kg/injection, schedule: Q01DX009 (ip), vehicle: saline); 103 % of control and 97 % of control under setting [8]; 100 % of control and 101 % of control under setting [9]; 95 % of control (dose: 100.0 mg/kg/injection, schedule: Q01DX009 (ip), vehicle: water). Moreover, the T/C (dose: 100.0 mg/kg/injection, schedule: Q04DX003 (ip), vehicle: Klucel (hydroxypropylcellulose) (HPC)) was 100 % of control; the T/C under setting [10] is 118 % of control and 96 % of control; the T/C (dose: 200.0 mg/kg/injection, schedule: Q01DX009 (ip), vehicle: water) was 95 % of control; the T/C (dose: 200.0 mg/kg/injection, schedule: Q04DX003 (ip), vehicle: Klucel (hydroxypropylcellulose) (HPC)) was 100 % of control; the T/C (dose: 400.0 mg/kg/injection, schedule: Q01DX009 (ip), vehicle: saline) is 106 % of control and 111 % of control; the T/C (dose: 400.0 mg/kg/injection, schedule: Q01DX009 (ip), vehicle: water) was 100 % of control. The T/C was 95 % of control (dose: 400.0 mg/kg/injection, schedule: Q04DX003 (ip), vehicle: Klucel (hydroxypropylcellulose) (HPC)); 110 % of control and 111 % of control (dose: 600.0 mg/kg/injection, schedule: Q01DX009 (ip), vehicle: saline).
For `Cc1ccc(S(=O)(=O)OCCN(CCOS(=O)(=O)c2ccc(C)cc2)c2ccc(C=O)cc2)cc1`, the T/C reads like this: (dose: 0.78 mg/kg/injection, schedule: Q04DX003 (ip), vehicle: saline with Tween-80) 100 % of control; (dose: 1.56 mg/kg/injection, schedule: Q04DX003 (ip), vehicle: saline with Tween-80) 113 % of control; (dose: 3.13 mg/kg/injection, schedule: Q04DX003 (ip), vehicle: saline with Tween-80) 100 % of control; (dose: 12.5 mg/kg/injection, schedule: Q04DX003 (ip), vehicle: saline with Tween-80) 154 % of control; (dose: 25.0 mg/kg/injection, schedule: Q04DX003 (ip), vehicle: saline with Tween-80) 159 % of control; (dose: 66.0 mg/kg/injection, schedule: Q04DX003 (ip), vehicle: saline with Tween-80) 158 % of control. Moreover, the T/C runs as follows: (dose: 100.0 mg/kg/injection, schedule: Q04DX003 (ip), vehicle: saline with Tween-80) 170 % of control and 172 % of control and 187 % of control; (dose: 150.0 mg/kg/injection, schedule: Q04DX003 (ip), vehicle: saline with Tween-80) 183 % of control; under setting [7], 95 % of control; (dose: 200.0 mg/kg/injection, schedule: Q04DX003 (ip), vehicle: saline with Tween-80) 162 % of control.
In the case of `O=c1ssc(=Nc2ccccc2)n1-c1ccccc1`, the T/C was 109 % of control under setting [11]; 116 % of control and 118 % of control under setting [12]; 113 % of control and 117 % of control under setting [13]; 124 % of control (dose: 400.0 mg/kg/injection, schedule: Q01DX009 (ip), vehicle: Klucel (hydroxypropylcellulose) (HPC)).
